Results from publication PMC6315728, “Fatty Acid and Related Potassium Kv2 Channel Blockers: Toxicity and Physiological Actions on Mosquitoes” (Insects, 2018).
Read-outs that look alike come from different tables or passages of the source.

Molecular target: T1, AgKv2.1 (voltage-gated potassium channel Kv2.1) (Anopheles gambiae, UniProt Q5TT67)
T1 construct: gene 1274312
T1 sequence (Q5TT67 1-1014): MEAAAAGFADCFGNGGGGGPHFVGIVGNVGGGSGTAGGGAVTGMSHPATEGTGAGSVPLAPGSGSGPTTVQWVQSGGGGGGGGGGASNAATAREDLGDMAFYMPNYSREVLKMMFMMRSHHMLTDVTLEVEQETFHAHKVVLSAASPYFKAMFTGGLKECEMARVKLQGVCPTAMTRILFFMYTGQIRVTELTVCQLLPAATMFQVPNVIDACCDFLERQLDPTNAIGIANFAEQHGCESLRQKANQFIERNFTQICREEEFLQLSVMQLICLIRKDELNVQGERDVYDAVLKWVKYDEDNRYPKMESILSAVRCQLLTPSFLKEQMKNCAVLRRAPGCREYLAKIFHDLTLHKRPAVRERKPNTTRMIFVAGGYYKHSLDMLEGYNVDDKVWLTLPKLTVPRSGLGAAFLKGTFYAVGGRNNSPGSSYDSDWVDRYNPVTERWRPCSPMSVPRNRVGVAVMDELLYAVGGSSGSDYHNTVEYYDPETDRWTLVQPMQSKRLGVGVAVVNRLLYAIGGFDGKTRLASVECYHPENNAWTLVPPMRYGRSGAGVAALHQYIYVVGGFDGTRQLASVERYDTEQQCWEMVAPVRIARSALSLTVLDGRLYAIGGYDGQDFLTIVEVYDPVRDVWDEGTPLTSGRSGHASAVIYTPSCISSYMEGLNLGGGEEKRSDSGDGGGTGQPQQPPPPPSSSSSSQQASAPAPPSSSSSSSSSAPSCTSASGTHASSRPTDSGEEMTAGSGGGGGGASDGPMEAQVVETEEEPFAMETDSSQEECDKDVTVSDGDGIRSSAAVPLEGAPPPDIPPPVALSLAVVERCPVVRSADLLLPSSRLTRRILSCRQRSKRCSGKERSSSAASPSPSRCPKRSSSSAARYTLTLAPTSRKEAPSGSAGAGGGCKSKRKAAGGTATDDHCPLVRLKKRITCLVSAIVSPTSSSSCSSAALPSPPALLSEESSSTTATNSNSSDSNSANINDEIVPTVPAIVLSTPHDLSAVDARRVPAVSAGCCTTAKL
Assay: whole-cell patch-clamp of HEK-293 cells expressing AgKv2.[…], current inhibition at +[…] mV
Assay type: cell-based

| Structure (SMILES) | IC50 (read-out: Patch Clamp / IC50 /) [nM] | IC50 [nM] |
| --- | --- | --- |
| CCCCCC(O)CCCC(=O)O (stereo not drawn) [5-HDC] | 30000 |  |
| CN(C)c1cccc2c(S(=O)(=O)NCCCCCCCCCCC(=O)O)cccc12 [DAUDA] | 1180 |  |
| CCCCCCCCCC(=O)O [decanoic acid] |  | 610 |
